Paper PMC3425516 (PLoS ONE, 2012)

Experiments:
Assay in all cases: NCI-60 cell lines screening
Type in all cases: cell-based, human
OVCAR-8 = settings: OVCAR-8, Ovarian Cancer panel
Method: (§1) The NCI-60 cancer cell lines screening was conducted by the NCI’s Developmental Therapeutics Program (DTP; http://www.dtp.nci.nih.gov/branches/btb/ivclsp.html).

HCT-15 = settings: HCT-15, Colon Cancer panel
Method: as §1

MDA-MB-435 = settings: MDA-MB-435, Melanoma panel
Method: as §1

HS 578T = tested on: HS 578T
Method: as §1

EKVX = settings: Non-Small Cell Lung Cancer panel
Method: as §1

NCI-H226 = settings: NCI-H226, Non-Small Cell Lung Cancer panel
Method: as §1

MAD-MB-231/ATCC = settings: Breast Cancer panel
Method: as §1

M14 = settings: M14, Melanoma panel
Method: as §1

UACC-62 = settings: UACC-62, Melanoma panel
Method: as §1

786-0 = settings: 786-0, Renal Cancer panel
Method: as §1

SF-268 = settings: SF-268, CNS Cancer panel
Method: as §1

CAKI-1 = settings: CAKI-1, Renal Cancer panel
Method: as §1

MCF-7 = settings: MCF-7, Breast Cancer panel
Method: as §1

RXF 393 = settings: RXF 393, Renal Cancer panel
Method: as §1

SNB-19 = settings: SNB-19, CNS Cancer panel
Method: as §1

HT29 = settings: HT29, Colon Cancer panel
Method: as §1

UACC-257 = settings: UACC-257, Melanoma panel
Method: as §1

NCI/ADR-RES = settings: Ovarian Cancer panel
Method: as §1

MDA-MB-468 = settings: MDA-MB-468, Breast Cancer panel
Method: as §1

MOLT-4 = settings: MOLT-4, Leukemia panel
Method: as §1

HCC-2998 = settings: HCC-2998, Colon Cancer panel
Method: as §1

SW-620 = settings: SW-620, Colon Cancer panel
Method: as §1

T-47D = settings: Breast Cancer panel
Method: as §1

RPMI-8226 = settings: RPMI-8226, Leukemia panel
Method: as §1

TK-10 = settings: TK-10, Renal Cancer panel
Method: as §1

BT-549 = settings: BT-549, Breast Cancer panel
Method: as §1

ACHN = settings: Renal Cancer panel
Method: as §1

A498 = settings: A498, Renal Cancer panel
Method: as §1

HCT-116 = settings: HCT-116, Colon Cancer panel
Method: as §1

UO-31 = settings: UO-31, Renal Cancer panel
Method: as §1

[1] = Homo sapiens, read-out: LC50 (the source's name)

## O=C(C=Cc1ccc2c(c1)CCN2S(=O)(=O)c1ccccc1)NO [MPT0E028, 3-(1-benzenesulfonyl-2,3-dihydro-1H-indol-5-yl)-N-hydroxy-acrylamide]
OVCAR-8; Homo sapiens
  GI50: 121 nM
OVCAR-8; [1]
  CC50: > 100000 nM
OVCAR-8
  TGI: 1750 nM
HCT-15
  TGI: 13100 nM
HCT-15; Homo sapiens
  GI50: 430 nM
HCT-15; [1]
  CC50: 90200 nM
MDA-MB-435; Homo sapiens
  GI50: 146 nM
MDA-MB-435; [1]
  CC50: 11300 nM
MDA-MB-435
  TGI: 706 nM
HS 578T; HS 578T, Breast Cancer panel
  TGI: 17900 nM
HS 578T; Homo sapiens, Hs-578T
  GI50: 253 nM
HS 578T; Homo sapiens, Hs-578T, read-out: LC50 (the source's name)
  CC50: > 100000 nM
EKVX; Homo sapiens
  GI50: 534 nM
EKVX
  TGI: >100000 nM
NCI-H226; Homo sapiens
  GI50: 1240 nM
NCI-H226; [1]
  CC50: 19000 nM
NCI-H226
  TGI: 3880 nM
MAD-MB-231/ATCC
  TGI: 822 nM
MAD-MB-231/ATCC; Homo sapiens
  GI50: 241 nM
MAD-MB-231/ATCC; [1]
  CC50: 20400 nM
M14; Homo sapiens
  GI50: 179 nM
M14; [1]
  CC50: 6450 nM
M14
  TGI: 1110 nM
UACC-62; Homo sapiens
  GI50: 71.6 nM
UACC-62
  TGI: 339 nM
786-0
  TGI: 1330 nM
786-0; Homo sapiens
  GI50: 300 nM
786-0; [1]
  CC50: 4020 nM
SF-268; Homo sapiens
  GI50: 464 nM
SF-268; [1]
  CC50: 70400 nM
SF-268
  TGI: 3400 nM
CAKI-1
  TGI: 959 nM
CAKI-1; Homo sapiens
  GI50: 218 nM
CAKI-1; [1]
  CC50: > 100000 nM
MCF-7; Homo sapiens, MCF7
  GI50: 230 nM
MCF-7; Homo sapiens, MCF7, read-out: LC50 (the source's name)
  CC50: 62700 nM
MCF-7
  TGI: 10500 nM
RXF 393; Homo sapiens
  GI50: 112 nM
RXF 393; [1]
  CC50: 998 nM
RXF 393
  TGI: 334 nM
SNB-19; Homo sapiens
  GI50: 434 nM
SNB-19; [1]
  CC50: 5650 nM
SNB-19
  TGI: 1640 nM
HT29
  TGI: 716 nM
HT29; Homo sapiens, HT-29
  GI50: 118 nM
HT29; Homo sapiens, HT-29, read-out: LC50 (the source's name)
  CC50: 68100 nM
UACC-257; Homo sapiens
  GI50: 127 nM
UACC-257; [1]
  CC50: > 100000 nM
UACC-257
  TGI: 1650 nM
NCI/ADR-RES; Homo sapiens
  GI50: 38.5 nM
NCI/ADR-RES; [1]
  CC50: > 100000 nM
NCI/ADR-RES
  TGI: 239 nM
MDA-MB-468; Homo sapiens
  GI50: 196 nM
MDA-MB-468; [1]
  CC50: 6310 nM
MDA-MB-468
  TGI: 1150 nM
MOLT-4; Homo sapiens
  GI50: 317 nM
MOLT-4; [1]
  CC50: > 100000 nM
MOLT-4
  TGI: >100000 nM
HCC-2998
  TGI: 522 nM
HCC-2998; Homo sapiens
  GI50: 194 nM
HCC-2998; [1]
  CC50: 2060 nM
SW-620; Homo sapiens
  GI50: 147 nM
SW-620; [1]
  CC50: > 100000 nM
SW-620
  TGI: 11200 nM
T-47D
  TGI: 445 nM
T-47D; Homo sapiens, T47D
  GI50: 121 nM
T-47D; Homo sapiens, T47D, read-out: LC50 (the source's name)
  CC50: > 100000 nM
RPMI-8226; Homo sapiens
  GI50: 81.1 nM
RPMI-8226; [1]
  CC50: > 100000 nM
RPMI-8226
  TGI: >100000 nM
TK-10; Homo sapiens
  GI50: 103 nM
TK-10; [1]
  CC50: 33600 nM
TK-10
  TGI: 660 nM
BT-549
  TGI: 5840 nM
BT-549; Homo sapiens
  GI50: 680 nM
BT-549; [1]
  CC50: > 100000 nM
ACHN; Homo sapiens
  GI50: 167 nM
ACHN; [1]
  CC50: 4080 nM
ACHN
  TGI: 576 nM
A498
  TGI: 1130 nM
A498; Homo sapiens
  GI50: 243 nM
A498; [1]
  CC50: 5130 nM
HCT-116
  TGI: 204 nM
HCT-116; Homo sapiens
  GI50: 56.3 nM
HCT-116; [1]
  CC50: 566 nM
UO-31; Homo sapiens
  GI50: 169 nM
UO-31; [1]
  CC50: 5630 nM
UO-31
  TGI: 1460 nM
